“And” between values parts separate entries of the source, which are not always exact repeats. Identical values can stand only once. Like-named read-outs stand apart in the source and are kept apart here.
Tests used:
Type in all cases: biochemical
pertussis toxin [1] = biological target: T1, pertussis toxin (Bordetella pertussis, UniProt P04977); experiment: Screen of compounds at 1 mM for stimulation of the NADase activity of the toxin (Example Three); settings: for Emax at 1000 µM / Fractional Activation: compound 1 mM, relative to 1 mM ATP, toxin preincubated with 20 mM DTT and 2% CHAPS, 3 h at 37° C, average ± half range of two trials; for Emax at 1000 µM: read-out: Fractional Activation
Description: The ADP-ribosylating activity of the pertussis toxin can be detected as a nicotinamide-adenine dinucleotide-glycohydrolase (NADase) activity, which can be conveniently assayed through the use of [nicotinamide-^14 C] or [nicotinamide-^3 H] NAD. NAD consists of ADP-ribose linked to nicotinimide, and thus the extent of the release of ADP-ribose from NAD is an indication of the ability of the toxin to cause ill effects. In conducting this assay of the hydrolysis of labelled NAD, ion-exchange column chromatography was employed to resolve the product from the substrate according to the method described by Moss et al., J. Biol. Chem. 258, 11879 (1983) which is incorporated herein by reference. However, several modifications to this method were employed. First, a QAE-Sephadex resin was employed, as was a [nicotinamide-^3 H] NAD. Specifically, a 2 ml QAE-Sephadex column was first washed with 10 ml 1NHCl, followed by 10 ml H2 O, 20 ml 0.5M Tris-HCl pH 7.0, and 40 ml H2 O. [^3 H] NAD was applied, and the column washed with 20 ml water to elute impurities. Purified [^3 H] NAD was eluted with 0.25M NaCl, and stored in small aliquots at -70° C. The purified [^3 H] NAD contributed 50 mM NaCl (final concentration) to the NADase assays.
Before the end of the reaction, 2 ml QAE-Sephadex columns were treated with 10 ml 0.1M imidazole-HCl pH 7.0 with 1.0M NaCl, followed by 40 ml water. The NADase reaction (in 100 μl) was terminated by adding 0.85 ml of ice-cold water, and the entire 0.95 ml was pipetted into a treated QAE column. The labelled nicotinamide was then eluted with 3 ml of water directly into a scintillation vial and counted. The absorbed labelled NAD was then eluted into radioactive waste with 10 ml 0.1M imidazole-HCl pH 7.0 with 1.0M NaCl, and the column stored partially immersed in a water bath until the next assay.
(§1) The pertussis toxin in the Examples comprised 50 μg of the toxin in a 500 μl solution of 10 mM sodium phosphate-50 mM sodium chloride-water solution having a pH of 7. The enzymatic activity was detected as the hydrolysis of nicotinamide labelled NAD and ion-exchange column chromatography to resolve the product from the substrate. Unless otherwise noted, the assay was initiated by adding 0.5 to 2.5 μg of the toxin to a reaction mixture for a final volume of 100 μl. The NADase reaction was terminated by adding 0.85 ml of ice-cold water. The entire 0.95 ml was then pipetted into a QAE-Sephadex column (chloride form) and the labelled nicotinamide eluted with 3 ml of water directly into a scintillation vial and counted. […] One unit of NADase activity is defined as 1 pmol NAD hydrolyzed per hour.
The various compounds were screened for the ability to stimulate the NADase activity of the toxin when present in a concentration of 1 mM. Before assay the toxin (1 μg per assay) was incubated at 37° C. for ten minutes with 20 mM DTT and 2 weight percent CHAPS. Assays were for three hours at 37° C., and fractional activation is defined as activity of the compound less the activity in the absence of an activator divided by the activity in the presence of 1 mM ATP less activity in the absence of the activator. The value given is the average plus one-half the range for two separate trials. In each trial, duplicates were measured. […] The results are shown in Table II, wherein P denotes phosphate.

pertussis toxin [2] = biological target: T1, pertussis toxin; experiment: Inactivation of NADase activity by sulfhydryl reagents, 6 minutes or 18 hours at 0-4° (Example Eight); settings: first incubation: ATP, DTT, CHAPS
Procedure: (§2) Pertussis toxin was incubated at 37° C. for fifteen minutes as described in Example Six, and then a second incubation was begun by adding 10 μl buffer A with or without 12.5 mM iodoacetate, mixing the contents of the tube and lowering the temperature to 30° C. After fifteen minutes, the tubes were shifted to an ice bath for ten minutes. A third incubation was then begun by adding 10 μl buffer A containing 200 mM DTT to those tubes containing iodoacetate to scavenge the iodoacetate. To those tubes not containing iodoacetate during the second incubation, a mixture of 200 mM DTT and 12.5 mM iodoacetate in buffer A, previously incubated for an hour on ice, was added. The third incubation was continued for one hour on ice.
(§3) The contents of each tube were then assayed for NADase activity by adding 40 μl of a reaction mix consisting of buffer A containing carbon-14 labelled NAD (final concentration in the 100 μl final volume was 25 μM), and 50 mM sodium chloride. Different reaction mixtures with various additions were used, so that in all tubes the final concentration of ATP was 1 mM and CHAPS was 1 weight percent. The assay was conducted at 37° C. for sixty minutes, and the released labelled nicotinimide was isolated and counted. The iced controls were formed by incubating pertussis toxin (1 μg) on ice in 10 mM sodium phosphate (pH 7) and 50 mM sodium chloride during the first three incubations. […] The first three incubations were done under a nitrogen atmosphere using degassed conditions, and the second and third incubations were done under subdued light.
The procedure followed in Example Seven was repeated for this study, except that N-ethylmaleimide, chloroacetamide or chloroacetate were substituted for iodoacetate. After the 30° C. incubation, the tubes were either incubated for six minutes or eighteen hours at 0°-4° C. before the 10 μl of 200 mM DTT (with or without quenched reagent) was added. Those tubes receiving the DTT after six minutes were incubated for nineteen hours at 0°-4° C. prior to the NADase assay. Those receiving the DTT after eighteen hours were incubated with DTT for one hour, as in Example Seven. The tubes were then assayed for NADase activity at the same time.

pertussis toxin [3] = biological target: T1, pertussis toxin; experiment: Activation constants (A0.5) of polyphosphates by NADase assay; settings: for fraction of the ATP effect / EC50: in the presence of a mild detergent
Procedure: In the description herein, activation constants for the substances may be expressed by a numerical value (A0.5) by using an NADase assay.
as §1

pertussis toxin [4] = biological target: T1, pertussis toxin; experiment: Inactivation of NADase activity by iodoacetate after different activator combinations (Example Seven); settings: additions to first incubation only (DTT 1 mM, ATP 1 mM, CHAPS 1%); second incubation none; read-out: Percent NADase activity relative to iced control
Procedure: Pertussis toxin was incubated first at 37° C. for fifteen minutes in […] buffer A (100 mM Tris-HCl, pH 8.0 with 1 mM NaEDTA). EDTA was added to chelate divalent cations, which may promote oxidation of free --SH groups. During this incubation, DTT and ATP were present in concentrations of 1 mM each, and CHAPS was present in a concentration of 1 weight percent. Labelled iodoacetate was then added ([…], 12.5 mM), and the tube incubated on ice for twenty hours. The sample was then mixed with sodium dodecylsulfate and β-mercaptoethanol, heated at 95° C. for one minute, and electrophoresed. After electrophoresis, the gel was fixed, treated with Fluorohance (Research Products International), dried and used to expose x-ray film.
as §2, §3

[5] = FIGS. 1A and 1B, read-out: activation constants (A0.5)

T1 sequence (P04977 35-269 limits assumed): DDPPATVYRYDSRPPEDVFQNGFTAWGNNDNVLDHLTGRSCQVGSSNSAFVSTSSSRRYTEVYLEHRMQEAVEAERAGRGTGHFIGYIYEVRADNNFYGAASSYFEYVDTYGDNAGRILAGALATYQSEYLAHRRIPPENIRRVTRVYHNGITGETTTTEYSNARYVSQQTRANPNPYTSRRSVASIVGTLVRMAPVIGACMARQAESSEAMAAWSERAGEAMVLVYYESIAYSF

`Nc1ncnc2c1ncn2[C@@H]1O[C@H](COP(=O)(O)O)[C@@H](O)[C@H]1O` [AMP] was tested, and the Emax at 1000 µM (pertussis toxin [1]) was 26 ± 9%.
Work on `O=c1[nH]cnc2c1ncn2[C@@H]1O[C@H](COP(=O)(O)OP(=O)(O)OP(=O)(O)O)[C@@H](O)[C@H]1O` [ITP] yielded an Emax at 1000 µM (pertussis toxin [1]) of 85 ± 1%.
`NC(=O)CCl` [chloroacetamide] was tested, and the NADase activity (pertussis toxin [2]; 6 minutes at 0-4°) was 76 pmol per μg per hour, the “percent of activity with no addition to second incubation” value (from here on “percent of activity with no addition”) (pertussis toxin [2]; 6 minutes at 0-4°) was 79% and the NADase activity (pertussis toxin [2]; 18 hours at 0-4°) was 35 pmol per μg per hour. The “percent of activity with no addition” value (pertussis toxin [2]; 18 hours at 0-4°) was 36%.
With `NC(Cc1ccc(OP(=O)(O)O)cc1)C(=O)O` (stereo not shown) [tyrosine-P] the Emax at 1000 µM (pertussis toxin [1]) was 2 ± 2%.
For `O=P(O)(O)OP(=O)(O)OP(=O)(O)O` [tripoly-P, tripolyphosphate], the “Fractional Activation” value (pertussis toxin [1]) was 0.98 ± .14 and the “fraction of the ATP effect” value (pertussis toxin [3]; FIGS. 1A and 1B) was 0.6.
`O=P(O)(O)O` [P, phosphate] was tested, and the “Stimulation (activation) of pertussis toxin, in words” value (“Stimulation (activation)” for short) (pertussis toxin [1]) was “ineffective” and the “Fractional Activation” value (pertussis toxin [1]) was 0.01 ± .01.
For `NC(COP(=O)(O)O)C(=O)O` (stereo not shown) [serine-P], the Emax at 1000 µM (pertussis toxin [1]) was -4 ± 2%.
With `O=C(O)CCl` [chloroacetate] the NADase activity (pertussis toxin [2]; 6 minutes at 0-4°) was 86 pmol per μg per hour, the “percent of activity with no addition” value (pertussis toxin [2]; 6 minutes at 0-4°) was 91% and the NADase activity (pertussis toxin [2]; 18 hours at 0-4°) was 85 pmol per μg per hour. For the same compound, the “percent of activity with no addition” value (pertussis toxin [2]; 18 hours at 0-4°) was 87%.
Compound `O=P(O)(O)OC(CO)CO` [2-glycerol-P] has an Emax at 1000 µM (pertussis toxin [1]) of -1 ± 3%.
`Nc1ncnc2c1ncn2[C@@H]1O[C@H](COP(=O)(O)OP(=O)(O)O)[C@@H](O)[C@H]1O` [ADP] was tested, and the “Stimulation (activation)” value (pertussis toxin [1]) was “effective”, the Emax at 1000 µM (pertussis toxin [1]) was 107 ± 6% and the EC50 (pertussis toxin [3]; [5]) was 6 µM.
`Cc1ncc(COP(=O)(O)O)c(C=O)c1O` [pyridoxal-P] gave an Emax at 1000 µM (pertussis toxin [1]) of 53 ± 6%.
In the case of `O=P(O)(O)OP(=O)(O)O` [pyro-P, pyrophosphate], the “Stimulation (activation)” value (pertussis toxin [1]) is reported as “effective”, the “Fractional Activation” value (pertussis toxin [1]) is reported as 0.85 ± .11 and the “fraction of the ATP effect” value (pertussis toxin [3]; FIGS. 1A and 1B) is reported as 0.7.
In the case of `Nc1ncnc2c1ncn2[C@@H]1O[C@H](CO)[C@@H](O)[C@H]1O` [adenosine], the “Stimulation (activation)” value (pertussis toxin [1]) is reported as “ineffective”, the Emax at 1000 µM (pertussis toxin [1]) is reported as 2 ± 2% and the “Effect on the dose-response relationship of ATP or pyrophosphate” value (pertussis toxin [3]; adenosine 1 mM) is reported as “failed to significantly alter”.
For `Nc1ncnc2c1ncn2[C@@H]1O[C@H](COP(=O)(O)OP(=O)(O)OP(=O)(O)O)[C@@H](O)[C@H]1O` [ATP], the “Stimulation (activation)” value (pertussis toxin [1]) was “effective”, the “NADase activity in the presence of 1 mM ATP” value (pertussis toxin [1]; two trials, without ATP 44 and 18) was 111 units per microgram toxin and 97 units per microgram toxin and the remaining activity at 1000 µM (pertussis toxin [4]) was 13%. The EC50 (pertussis toxin [3]; [5]) was 0.2 µM and the EC50 (pertussis toxin [3]; read-out: activation constant) was ~0.2 µM.
In the case of `Nc1nc2c(ncn2[C@@H]2O[C@H](COP(=O)(O)OP(=O)(O)OP(=O)(O)O)[C@@H](O)[C@H]2O)c(=O)[nH]1` [GTP], the Emax at 1000 µM (pertussis toxin [1]) is reported as 87 ± 1% and the EC50 (pertussis toxin [3]; [5]) is reported as 35 µM.
For `O=P(O)(O)OC[C@H]1OC(O)[C@H](O)[C@@H](O)[C@@H]1O` (stereo partly shown) [glucose-6-P, glucose 6-phosphate], the “Stimulation (activation)” value (pertussis toxin [1]) was “ineffective” and the Emax at 1000 µM (pertussis toxin [1]) was -3 ± 2%.
For `CC(OP(=O)(O)O)C(N)C(=O)O` (stereo not shown) [threonine-P], the Emax at 1000 µM (pertussis toxin [1]) was 1 ± 1%.
For `O=P(O)(O)OP(=O)(O)OP(=O)(O)OP(=O)(O)O` [tetrapoly-P, tetrapolyphosphate], the “Fractional Activation” value (pertussis toxin [1]) was 0.92 ± .12, the “fraction of the ATP effect” value (pertussis toxin [3]; FIGS. 1A and 1B) was 0.4 and the EC50 (pertussis toxin [3]; [5]) was ≥ 170 µM.
For `O=P1([O-])OP(=O)([O-])OP(=O)([O-])O1.[Na+].[Na+].[Na+]` [trimeta-P, trimetaphosphate], the “Fractional Activation” value (pertussis toxin [1]) was 0.69 ± .22, the “fraction of the ATP effect” value (pertussis toxin [3]; FIGS. 1A and 1B) was 0.3 and the EC50 (pertussis toxin [3]; [5]) was ≥ 260 µM.
Work on `Nc1ccn([C@@H]2O[C@H](COP(=O)(O)OP(=O)(O)OP(=O)(O)O)[C@@H](O)[C@H]2O)c(=O)n1` [CTP] yielded an Emax at 1000 µM (pertussis toxin [1]) of 103 ± 9%.
In the case of `O=c1ccn([C@@H]2O[C@H](COP(=O)(O)OP(=O)(O)OP(=O)(O)O)[C@@H](O)[C@H]2O)c(=O)[nH]1` [UTP], the Emax at 1000 µM (pertussis toxin [1]) is reported as 92 ± 3% and the EC50 (pertussis toxin [3]; [5]) is reported as 15 µM.

— patent publication US5032398A, “Selective modification of the catalytic subunit of pertussis toxin” (priority 1986, dated 1991)
